This passage reports IC50 results from PMC7398468 (Gut, 2020).

pIC50: −log10 of the molar value.

The assay has as its target SUMO-activating enzyme (SAE), subunit 2 (UBA2/SAE2) (Homo sapiens, UniProt Q9UBT2). The assay is described as follows: ATP-inorganic pyrophosphate exchange assay with SUMO2. It is filed as biochemical.

Chain of SUMO-activating enzyme (SAE), subunit 2 (UBA2/SAE2) (Q9UBT2 whole entry): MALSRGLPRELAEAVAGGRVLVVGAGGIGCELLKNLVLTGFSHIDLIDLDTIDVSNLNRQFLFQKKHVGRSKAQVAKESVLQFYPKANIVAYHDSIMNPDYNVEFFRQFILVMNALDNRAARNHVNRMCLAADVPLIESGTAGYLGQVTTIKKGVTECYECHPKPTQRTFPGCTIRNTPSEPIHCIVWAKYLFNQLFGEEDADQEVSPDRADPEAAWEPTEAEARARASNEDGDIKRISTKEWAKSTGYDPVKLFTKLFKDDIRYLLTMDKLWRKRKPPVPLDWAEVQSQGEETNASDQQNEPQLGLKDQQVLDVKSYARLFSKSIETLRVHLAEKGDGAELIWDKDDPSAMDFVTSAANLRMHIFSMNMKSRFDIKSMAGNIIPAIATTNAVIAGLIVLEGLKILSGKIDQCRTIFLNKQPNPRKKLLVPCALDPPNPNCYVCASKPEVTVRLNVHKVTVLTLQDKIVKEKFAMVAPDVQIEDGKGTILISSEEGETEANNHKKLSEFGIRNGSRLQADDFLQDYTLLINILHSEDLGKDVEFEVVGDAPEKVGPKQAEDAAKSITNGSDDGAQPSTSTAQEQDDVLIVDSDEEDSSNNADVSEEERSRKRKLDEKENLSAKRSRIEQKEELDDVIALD
Chain of SUMO-activating enzyme (SAE), subunit 2 (UBA2/SAE2) (Q9UBE0 whole entry, further chain): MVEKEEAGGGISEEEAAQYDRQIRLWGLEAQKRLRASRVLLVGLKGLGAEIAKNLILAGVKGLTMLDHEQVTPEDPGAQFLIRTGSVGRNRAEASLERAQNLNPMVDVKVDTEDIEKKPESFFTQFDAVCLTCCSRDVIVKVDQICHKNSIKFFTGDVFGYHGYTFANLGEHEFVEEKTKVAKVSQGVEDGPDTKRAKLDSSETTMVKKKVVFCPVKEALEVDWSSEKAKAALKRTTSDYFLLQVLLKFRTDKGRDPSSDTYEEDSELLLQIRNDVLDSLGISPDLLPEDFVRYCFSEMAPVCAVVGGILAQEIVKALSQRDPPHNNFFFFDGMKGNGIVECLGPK

Substance ML-93 gave a pIC50 of 7.43.

By pIC50 is commonly meant the IC50 on a negative log10 scale, so that one unit is a factor of ten. Lower therefore signals a high IC50.
